These are literature values, as cited in patent publication US8188245B2, “Enduracidin biosynthetic gene cluster from streptomyces fungicidicus” (priority 2006, dated 2012).

Series [1] relates to vancomycin resistant bacteria.
In series [2] the test system is S. aureus (100 strains, including 40% MRSA). The following applies: 100 strains of S. aureus.
Series [3] relates to Gram-positive organisms, including MRSA.

With Enduracidin, the Antibacterial activity entry was “active” in series [1]; “active” in series [3] (wide variety of Gram-positive bacteria, including VRE and MRSA). Besides, in series [2], the “Concentration that no strain was able to survive” value was 1 µg/mL. The “Toxicity or side effects” value in the series on MRSA (in vivo) is reported as “No toxicity or side effects were reported”. Further, the Efficacy in humans entry in the series with MRSA (urinary tract and skin infections caused by MRSA) is listed as “effective”. Moreover, in series [3] (in vitro), the “Type of antibacterial effect” value is given as “bactericidal”. Also, the “Minimal inhibitory concentrations (MICs)” value in series [3] (wide spectrum of primarily Gram-positive organisms, lowest MICs ("as low as")) was not below 0.05 mg/L.
